Among the data in US11564928B1, “Cannabinoid receptor type 2 (CB2) modulators and uses thereof” (Teon Therapeutics, Inc., priority 2020, dated 2023) are IC50 and Emax values, retold here.

In assay [1] the target is T1, human CB2 receptor (Homo sapiens (Human), UniProt P34972). As to the kind of experiment: CB2 receptor cAMP assay (DiscoverX HitHunter cAMP XS+). The conditions noted are these: for Emax: CHO-K1, read-out: Max Stimulation %. It counts as cell-based. As for the experimental part:
cAMP Hunter CHO-K-1 cell lines expressing human CB2 receptor (Eurofins) were expanded from freezer stocks according to standard procedures. Cells were seeded in a total volume of 20 μL into white walled, 384-well microplates and incubated at 37° C. for the appropriate time prior to testing. cAMP modulation in agonist, inverse agonist or antagonist format was determined using the DiscoverX HitHunter cAMP XS+ assay (Eurofins). For agonist determination, cells were incubated with sample in the presence of EC80 forskolin to induce response. Media was aspirated from cells and replaced with 15 μL 2:1 HBSS/10 mM Hepes: cAMP XS+Ab reagent. Intermediate dilution of sample stocks was performed to generate 4× sample in assay buffer containing 4× EC80 forskolin. 5 μL of 4× sample was added to cells and incubated at 37° C. or room temperature for 30 or 60 minutes. Final assay vehicle concentration was 1%. For inverse agonist determination, cells were preincubated with sample in the presence of EC20 forskolin. Media was aspirated from cells and replaced with 15 μL, 2:1 HBSS/10 mM Hepes: cAMP XS+Ab reagent. Intermediate dilution of sample stocks was performed to generate 4× sample in assay buffer containing 4× EC20 forskolin. 5 μL of 4× sample was added to cells and incubated at 37° C. or room temperature for 30 or 60 minutes. Final assay vehicle concentration was 1%. For antagonist determination, cells were pre-incubated with sample followed by agonist challenge at the EC80 concentration. Media was aspirated from cells and replaced with 10 μL 1:1 HBSS/Hepes: cAMP XS+Ab reagent. 5 μL of 4× compound was added to the cells and incubated at 37° C. or room temperature for 30 minutes. 5 μL of 4× EC80 agonist was added to cells and incubated at 37° C. or room temperature for 30 or 60 minutes. EC80 forksolin was included. After appropriate compound incubation, assay signal was generated through incubation with 20 μL cAMP XS+ED/CL lysis cocktail for one hour followed by incubation with 20 μL, cAMP XS+EA reagent for three hours at room temperature. Microplates were read following signal generation with a PerkinElmer Envision instrument for chemiluminescent signal detection. Compound activity was analyzed using CBIS data analysis suite (ChemInnovation, CA). For agonist mode assay, percentage activity is calculated using the following formula: % Activity=100%×(1−(mean RLU of test sample−mean RLU of MAX control)/(mean RLU of vehicle control−mean RLU of MAX control)). For inverse agonist mode assay, percentage activity is calculated using the following formula: % Inverse Agonist Activity=100%×((mean RLU of test sample−mean RLU of EC20 forskolin)/(mean RLU of forskolin positive control−mean RLU of EC20 control)). For antagonist mode assay, percentage inhibition is calculated using the following formula: % Inhibition=100%×(mean RLU of test sample−mean RLU of EC80 control)/(mean RLU of forskolin positive control−mean RLU of EC80 control). Data are analyzed and IC50 is calculated using GraphPad Prism 5 and the model “log(inhibitor) vs. response—Variable slope”.

For assay [2], the target named is T1, human CB2 receptor. As to the kind of experiment: CB2 receptor binding assay ([3H]CP-55,940 displacement, HEK-293 membranes).
Another assay concerns the target human recombinant CB1R (Homo sapiens (Human), UniProt P21554). As to the kind of experiment: CB1 receptor binding assay ([3H]CP-55,940 displacement, HEK-293 membranes). To be noted: membranes of HEK-293 cells with human recombinant CB1R, [3H]CP-55,940, read-out: CB1 IC50. A digest of the protocol:
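Displacement of [3H]CP-55,940 was measured on human CB1R- or CB2R-transfected HEK-293 membranes after 120 min at 37 °C, in duplicate, with filtration and scintillation counting. For CB2R, incubation used Tris-HCl 50 mM, MgCl2 5 mM, CaCl2 1 mM, BSA 0.2%, pH 7.4. Ki values were derived from variable-slope IC50 fits using Cheng–Prusoff.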

Setting [3] is: membranes of HEK-293 cells with human recombinant CB2R, [3H]CP-55,940, read-out: CB2 IC50.
The mark [4] stands for this setting: cAMP Hunter CHO-K-1 cells expressing human CB2 receptor, read-out: cAMP IC50.
Setting [5] is: membranes of HEK-293 cells with human recombinant CB2R, [3H]CP-55,940, class symbols, read-out: CB2 IC50.

The structures appear in SMILES notation. Where two headings read alike, the source gives them in different places.

human recombinant CB1R, sequence (P21554 whole entry): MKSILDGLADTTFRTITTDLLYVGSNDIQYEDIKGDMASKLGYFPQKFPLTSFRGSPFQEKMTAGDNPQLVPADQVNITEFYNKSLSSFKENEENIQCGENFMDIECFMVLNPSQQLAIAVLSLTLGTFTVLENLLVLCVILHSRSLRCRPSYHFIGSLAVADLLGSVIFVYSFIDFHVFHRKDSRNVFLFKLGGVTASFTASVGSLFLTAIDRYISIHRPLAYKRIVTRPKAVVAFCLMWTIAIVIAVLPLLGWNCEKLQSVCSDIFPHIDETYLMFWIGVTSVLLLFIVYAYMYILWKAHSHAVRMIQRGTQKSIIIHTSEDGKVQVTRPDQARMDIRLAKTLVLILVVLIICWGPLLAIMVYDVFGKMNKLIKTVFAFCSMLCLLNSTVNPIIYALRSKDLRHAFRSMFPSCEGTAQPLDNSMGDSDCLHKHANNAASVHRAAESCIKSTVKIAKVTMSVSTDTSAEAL
T1 sequence (P34972 whole entry): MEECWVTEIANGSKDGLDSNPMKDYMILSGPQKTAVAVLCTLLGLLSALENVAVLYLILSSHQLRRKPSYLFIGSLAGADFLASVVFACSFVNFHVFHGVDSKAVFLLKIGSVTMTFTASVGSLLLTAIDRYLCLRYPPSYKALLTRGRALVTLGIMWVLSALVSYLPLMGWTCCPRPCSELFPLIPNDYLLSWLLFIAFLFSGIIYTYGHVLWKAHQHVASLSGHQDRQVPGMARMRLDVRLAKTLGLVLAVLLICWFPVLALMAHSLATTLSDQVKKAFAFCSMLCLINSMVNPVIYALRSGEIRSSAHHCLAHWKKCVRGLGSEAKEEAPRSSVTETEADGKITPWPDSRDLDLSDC

With `CC1CCC(NC(=O)c2c(O)c3cc(-c4ccc(F)cc4)cnc3n(CCN3CCOCC3)c2=O)CC1` (stereo not shown) [Compound 5, 6-(4-fluorophenyl)-4-hydroxy-N-(4-methylcyclohexyl)-1-(2-morpholinoethyl)-2-oxo-1,2-dihydro-1,8-naphthyridine-3-carboxamide], the IC50 on human CB2 receptor [1] was found to be 70 nM; at human CB2 receptor [2] (setting [3]), 6.5 nM; at human recombinant CB1R it was 3870 nM. Further, the Emax at human CB2 receptor [1] came to 75%.
With `O=C(NC1CC2(CCC2)C1)c1c(O)c2cc(-c3ccc(F)cc3)cnc2n(CCN2CCOCC2)c1=O` [Compound 6, 6-(4-fluorophenyl)-4-hydroxy-1-(2-morpholinoethyl)-2-oxo-N-(spiro[3.3]heptan-2-yl)-1,2-dihydro-1,8-naphthyridine-3-carboxamide], the half-inhibitory concentration (IC50) at human CB2 receptor [1] (setting [4]) was over 1000 nM; on human CB2 receptor [2] (setting [3]) it was 6.1 nM; at human recombinant CB1R it was over 10000 nM.
In the case of `O=C(NC1CCC(F)(F)CC1)c1c(O)c2cc(-c3ccc(F)cc3)cnc2n(CCN2CCOCC2)c1=O` [Compound 7, N-(4,4-difluorocyclohexyl)-6-(4-fluorophenyl)-4-hydroxy-1-(2-morpholinoethyl)-2-oxo-1,2-dihydro-1,8-naphthyridine-3-carboxamide], the IC50 at human CB2 receptor [1] (setting [4]), on human CB2 receptor [2] (setting [5]) and on human recombinant CB1R (class symbols) was over 1000 nM in each case.
As to `O=C(NC12CC(C1)C2)c1c(O)c2cc(-c3ccc(F)cc3)cnc2n(CCN2CCOCC2)c1=O` [Compound 8, N-(bicyclo[1.1.1]pentan-1-yl)-6-(4-fluorophenyl)-4-hydroxy-1-(2-morpholinoethyl)-2-oxo-1,2-dihydro-1,8-naphthyridine-3-carboxamide], the IC50 is 40 nM against human CB2 receptor [1], 20 nM on human CB2 receptor [2] (setting [3]) and over 10000 nM on human recombinant CB1R. For the same compound, on human CB2 receptor [1], the Emax was found to be 32%.
With `CC(NC(=O)c1c(O)c2cc(-c3ccc(F)cc3)cnc2n(CCN2CCOCC2)c1=O)c1ccc(F)cc1` (stereo not shown) [Compound 9, 6-(4-fluorophenyl)-N-(1-(4-fluorophenyl)ethyl)-4-hydroxy-1-(2-morpholinoethyl)-2-oxo-1,2-dihydro-1,8-naphthyridine-3-carboxamide], the values for the half-inhibitory concentration (IC50) at human CB2 receptor [1], at human CB2 receptor [2] (setting [5]) and on human recombinant CB1R (class symbols) were 71 nM, under 100 nM and over 1000 nM, respectively. Moreover, the Emax at human CB2 receptor [1] came out at 7%.
For the compound `COc1ccc(-c2cnc3c(c2)c(O)c(C(=O)NC2CC4(CCC4)C2)c(=O)n3CCN2CCOCC2)cc1` [Compound 10, 4-hydroxy-6-(4-methoxyphenyl)-1-(2-morpholinoethyl)-2-oxo-N-(spiro[3.3]heptan-2-yl)-1,2-dihydro-1,8-naphthyridine-3-carboxamide], the IC50 at human CB2 receptor [1] is 7 nM; on human CB2 receptor [2] (setting [3]), 7 nM; on human recombinant CB1R it was over 10000 nM. Besides, the Emax on human CB2 receptor [1] turned out to be 82%.
As to `O=C(NC1CC2(CCC2)C1)c1c(O)c2cc(-c3ccc(Cl)cc3)cnc2n(CCN2CCOCC2)c1=O` [Compound 11, 6-(4-chlorophenyl)-4-hydroxy-1-(2-morpholinoethyl)-2-oxo-N-(spiro[3.3]heptan-2-yl)-1,2-dihydro-1,8-naphthyridine-3-carboxamide], the IC50 against human CB2 receptor [1] was 81 nM; at human CB2 receptor [2], 100 to 999 nM; at human recombinant CB1R (class symbols) it was over 1000 nM. At human CB2 receptor [1], the Emax turned out to be 60%.
As to `COc1ccc(-c2cnc3c(c2)c(O)c(C(=O)NC24CC(C2)C4)c(=O)n3CCN2CCOCC2)cc1` [Compound 13, N-(bicyclo[1.1.1]pentan-1-yl)-4-hydroxy-6-(4-methoxyphenyl)-1-(2-morpholinoethyl)-2-oxo-1,2-dihydro-1,8-naphthyridine-3-carboxamide], the IC50 against human CB2 receptor [1] is 62 nM; at human CB2 receptor [2] (setting [3]), 17 nM; on human recombinant CB1R, over 10000 nM. For the same compound, the Emax on human CB2 receptor [1] is 67%.
The corresponding values for `CC1CCC(NC(=O)c2c(O)c3cc(-c4ccc(OC(F)F)cc4)cnc3n(CCN3CCOCC3)c2=O)CC1` (stereo not shown) [Compound 15, 6-(4-(difluoromethoxy)phenyl)-4-hydroxy-N-(4-methylcyclohexyl)-1-(2-morpholinoethyl)-2-oxo-1,2-dihydro-1,8-naphthyridine-3-carboxamide] are 21 nM, 8.8 nM, over 10000 nM and 75%.
Consider `CC1CCC(NC(=O)c2c(O)c3cc(-c4ccc(C#N)cc4)cnc3n(CCN3CCOCC3)c2=O)CC1` (stereo not shown) [Compound 16, 6-(4-cyanophenyl)-4-hydroxy-N-(4-methylcyclohexyl)-1-(2-morpholinoethyl)-2-oxo-1,2-dihydro-1,8-naphthyridine-3-carboxamide], for which, at human CB2 receptor [1], the Emax is 30%. Further, on human recombinant CB1R, the IC50 is over 10000 nM.
Take `CC1CCC(NC(=O)c2c(O)c3cc(-c4ccc5c(c4)OCCO5)cnc3n(CCN3CCOCC3)c2=O)CC1` (stereo not shown) [Compound 19, 6-(2,3-dihydrobenzo[b][1,4]dioxin-6-yl)-4-hydroxy-N-(4-methylcyclohexyl)-1-(2-morpholinoethyl)-2-oxo-1,2-dihydro-1,8-naphthyridine-3-carboxamide]: the IC50 against human CB2 receptor [1] is 43 nM; on human CB2 receptor [2] (setting [3]), 20 nM; on human recombinant CB1R, over 10000 nM. Also, at human CB2 receptor [1], the Emax came to 81%.
For `COc1ccc(-c2cnc3c(c2)c(O)c(C(=O)NC2CCC(C)CC2)c(=O)n3CCN2CCOCC2)cc1` (stereo not shown) [Compound 20, 4-hydroxy-6-(4-methoxyphenyl)-N-(4-methylcyclohexyl)-1-(2-morpholinoethyl)-2-oxo-1,2-dihydro-1,8-naphthyridine-3-carboxamide], the IC50 is 7 nM against human CB2 receptor [1], 4.7 nM at human CB2 receptor [2] (setting [3]) and over 10000 nM at human recombinant CB1R. Moreover, the Emax at human CB2 receptor [1] stood at 93%.
Taken in the same sequence, the figures for `COc1ccc(-c2cnc3c(c2)cc(C(=O)NC2CC4(CCC4)C2)c(=O)n3CCN2CCOCC2)cc1` [Compound 29, 6-(4-methoxyphenyl)-1-(2-morpholinoethyl)-2-oxo-N-(spiro[3.3]heptan-2-yl)-1,2-dihydro-1,8-naphthyridine-3-carboxamide] were 5 nM, 1.2 nM, over 10000 nM and 107%.
For `O=C(NC1CC2(CCC2)C1)c1cc2cc(-c3ccc(OC(F)F)cn3)cnc2n(CCN2CCOCC2)c1=O` [Compound 47, 6-(5-(difluoromethoxy)pyridin-2-yl)-1-(2-morpholinoethyl)-2-oxo-N-(spiro[3.3]heptan-2-yl)-1,2-dihydro-1,8-naphthyridine-3-carboxamide], the Emax at human CB2 receptor [1] is 48%. At human recombinant CB1R, the IC50 is over 10000 nM.
In the case of `CC(NC(=O)c1cc2cc(-c3ccc(C#N)cn3)cnc2n(CCN2CCOCC2)c1=O)c1ccc(F)cc1` (stereo not shown) [Compound 58, 6-(5-cyanopyridin-2-yl)-N-(1-(4-fluorophenyl)ethyl)-1-(2-morpholinoethyl)-2-oxo-1,2-dihydro-1,8-naphthyridine-3-carboxamide], on human CB2 receptor [1], the Emax came out at 77%. In addition, the IC50 at human recombinant CB1R is over 10000 nM.
For the compound `N#Cc1ccc(C2(NC(=O)c3cc4cc(Br)cnc4n(Cc4ccc(F)cc4)c3=O)CC2)cc1` [Compound 92, 6-bromo-N-(1-(4-cyanophenyl)cyclopropyl)-1-(4-fluorobenzyl)-2-oxo-1,2-dihydro-1,8-naphthyridine-3-carboxamide], at human CB2 receptor [1], the IC50 is 3.6 nM and the Emax amounted to 108%. The IC50 on human CB2 receptor [2] (setting [5]) is under 100 nM.
